Measured values reported in US8143419B2, “Trisubstituted 1,2,4-triazoles” (Janssen Pharmaceutica N. V., priority 2006, dated 2012).

Columns and labels:
hα7-wt nAChR [1] = target: T1, hα7-wt nAChR (Homo sapiens, UniProt P36544); experiment: Ca2+ flux imaging (FLIPR) (Protocol A), PAM activity with choline as agonist; format: cell-based; settings: for EC50: "<5" = no top plateau at maximal concentration; for Emax: read-out: % efficacy
T1 construct: expressed in transfected cells
Source text: Stable expression in mammalian cells in general and rat GH4C1 cells in particular, of cDNA clones encoding the human α7 wild-type sequence (hα7-wt nAChR) and in which the coding region is placed downstream of a promoter results in the appearance of functional α7 nAChRs on the surface of the mammalian cells. This technique has provided a powerful means of assessing the function of α7 wild-type protein. Given the fact that the cation permeability of the α7 nicotinic receptor preferentially favours calcium, fluorescent imaging of Ca^2+ flux through the hα7-wt nAChR stably expressed in the GH4C1 cell line was used as a first means of assaying modulator activity of the compounds of the present invention.
• Hanks buffered saline solution (HBSS, Invitrogen, Belgium), supplemented with 10 mM HEPES (Invitrogen, Belgium), CaCl2 to a final concentration of 5 mM, 0.1% Bovine serum albumin (Sigma-Aldrich NV, Belgium), 2.5 mM probenecid (Sigma-Aldrich NV, Belgium). b) Calcium-Sensitive Dye—Fluo-4AM • Fluo-4AM (Molecular Probes, USA) was dissolved in DMSO containing 10% Pluronic acid (Molecular Probes, USA) to give a stock solution which was aliquoted and stored at −20° C. until later use. On the day of the experiment Fluo-4AM stock was defrosted and diluted in DMEM/F12 (Invitrogen, Belgium) to give a final concentration of 4 μM. c) 96-Well Plates • BD Biocoat poly-D-lysine 96-well black/clear plates (BD Biosciences, Belgium) d) Calcium Flux Measurement • A Fluorimetric Imaging Plate Reader (FLIPR, Molecular Devices Corporation, Sunnyvale, USA) was used to measure intracellular free-calcium flux signals Method
Monolayers of hα7-wt nAChR-expressing cells were grown in multi-well plates, in particular black-sided, transparent bottomed 96 well plates coated with poly-D-lysine for 24 hours prior to loading with a fluorescent calcium indicator, in a particular embodiment loading with fluo-3 or fluo-4AM for up to 90 minutes, in an even more particular embodiment loading with fluo-4AM for up to 90 minutes, and in a preferred embodiment loading with fluo-4AM for up to 60 minutes.
PAM activity was detected in real time by applying the compounds to be tested to the loaded cells along with a α7 nicotinic receptor agonist during constant monitoring of cellular fluorescence in a FLIPR. Compounds giving peak fluorescent responses greater than the response due to agonist alone, were considered to be α7 nAChR PAM's. In a particular embodiment, the α7 nicotinic receptor agonist was choline, a more particular embodiment choline applied at a sub-maximal concentration of 100 μM. In a further setting of the present invention the compounds to be tested were applied prior to the α7 nicotinic receptor agonist, in a particular embodiment up to 20 minutes prior to the agonist, a more particular embodiment up to 10 minutes prior to the agonist, and an even more particular embodiment 10 minutes prior to the agonist.
A control response to choline was calculated on each plate from the difference in peak in fluorescence in wells receiving either choline or assay buffer alone. Compounds of the present invention were tested at a concentration range from 0.1 μM to 50 μM. Compounds were considered to have an interesting activity when their efficacy was at least 500% when tested at the concentration where they have a maximal effect, typically between 0.1 μM and 50 μM (the efficacy of 100 μM choline was defined as 100% in the absence of a PAM). The compounds also have a potentiating effect on the response to choline when measured by whole-cell patch clamp electrophysiology in GH4C1 cells stably over-expressing the human wild-type α7 receptor.

hα7-wt nAChR [2] = target: T1, hα7-wt nAChR; experiment: Ca2+ flux imaging (FDSS) (Protocol B), PAM activity with choline as agonist; format: cell-based; settings: for EC50: "<5" = no top plateau at maximal concentration; for Emax: read-out: % efficacy
Procedure, shortened: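 Cells stably expressing human wild-type α7 nAChR, loaded with fluo-4AM (2 μM final) up to 120 min in HBSS/10 mM HEPES/5 mM CaCl2/0.1% BSA with 5 mM probenecid. Compounds (0.01–30 μM) added up to 10 min before 100 μM choline; peak fluorescence read on FDSS, potentiation expressed relative to choline-alone response (100%).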

T1 sequence (P36544 23-502): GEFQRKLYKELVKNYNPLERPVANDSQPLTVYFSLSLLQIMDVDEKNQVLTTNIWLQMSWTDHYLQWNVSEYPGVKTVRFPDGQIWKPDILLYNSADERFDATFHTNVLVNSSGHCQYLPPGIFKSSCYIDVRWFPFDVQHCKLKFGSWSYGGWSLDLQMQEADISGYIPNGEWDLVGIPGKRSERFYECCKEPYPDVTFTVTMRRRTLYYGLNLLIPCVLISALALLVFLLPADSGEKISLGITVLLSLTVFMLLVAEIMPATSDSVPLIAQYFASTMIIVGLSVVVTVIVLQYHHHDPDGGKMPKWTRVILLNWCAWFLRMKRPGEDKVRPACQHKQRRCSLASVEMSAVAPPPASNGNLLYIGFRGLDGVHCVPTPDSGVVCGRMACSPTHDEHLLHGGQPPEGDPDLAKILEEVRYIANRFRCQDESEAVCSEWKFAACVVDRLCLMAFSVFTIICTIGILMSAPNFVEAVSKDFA

| Compound | melting point [°C] | EC50 (hα7-wt nAChR [1]) [µM] | Emax (hα7-wt nAChR [1]) [%] | EC50 (hα7-wt nAChR [2]) [µM] | Emax (hα7-wt nAChR [2]) [%] |
| --- | --- | --- | --- | --- | --- |
| OCCn1nc(Nc2cccc(C(F)(F)F)c2)nc1-c1ccc2c(c1)OCCO2 [Compound 3] | 188.3 to 190.3 | 3.16 |  |  |  |
| CN(C)C(=O)CCn1nc(Nc2cccc(C(F)(F)F)c2)nc1-c1ccc2c(c1)OCCO2 [Compound 6] | 195.7 to 196.6 | 0.158 |  |  |  |
| OCCn1nc(Nc2cccc(C(F)(F)F)c2)nc1-c1ccnc(Cl)c1 [Compound 7] |  | 6.31 |  |  |  |
| CNC(=O)CCn1nc(Nc2cccc(C(F)(F)F)c2)nc1-c1ccncc1 [Compound 11] |  | > 10 | 938 |  |  |
| CNC(=O)Cn1nc(Nc2cccc(C(F)(F)F)c2)nc1-c1ccc(Cl)cc1Cl [Compound 13] | 179.9 to 182.1 | 2 |  |  |  |
| OCCn1nc(Nc2cccc(C(F)(F)F)c2)nc1-c1cccnc1 [Compound 16] | 158.2 to 159 | 7.94 | 583 |  |  |
| Cn1nc(Nc2ccccc2)nc1-c1ccc(Cl)cc1Cl [Compound 18] | 193 to 194 | > 10 |  |  |  |
| NC(=O)Cn1nc(Nc2cccc(C(F)(F)F)c2)nc1-c1ccc(Cl)cc1Cl [Compound 20] | 203.6 to 206.4 | > 10 |  |  |  |
| CN(C)C(=O)Cn1nc(Nc2cccc(C(F)(F)F)c2)nc1-c1ccc2c(c1)OCCO2 [Compound 23] |  | > 10 |  |  |  |
| CC(=O)NCCCn1nc(Nc2ccc(F)c(C(F)(F)F)c2)nc1-c1ccnc(C)c1 [Compound 27] | 171.2 | > 10 |  |  |  |
| OCCn1nc(Nc2cccc(C(F)(F)F)c2)nc1-c1ccnc(N2CCOCC2)c1 [Compound 38] | 167.4 | 3.98 |  |  |  |
| COCCn1nc(Nc2cccc(C(F)(F)F)c2)nc1-c1ccncc1 [Compound 52] | 147.2 | 7.94 | 641 |  |  |
| OCCn1nc(Nc2cccc(C(F)(F)F)c2)nc1-c1cnc2c(c1)OCC2 [Compound 78] | 173.1 | > 10 |  |  |  |
| OCCn1nc(Nc2cccc(C(F)(F)F)c2)nc1-c1cnc2ccoc2c1 [Compound 79] | 158.8 | > 10 |  |  |  |
| OCCn1nc(Nc2cccc(C(F)(F)F)c2)nc1-c1cnc2ccccc2c1 [Compound 80] | 182 | 3.16 |  |  |  |
| CCOC(=O)Cn1nc(Nc2cccc(C(F)(F)F)c2)nc1-c1ccc2c(c1)OCO2 [Compound 81] | 149.2 | > 10 |  |  |  |
| C[C@@H](O)Cn1nc(Nc2ccc(F)c(C(F)(F)F)c2)nc1-c1ccc(C2CC2)nc1 [Compound 100] |  | 3.98 |  |  |  |
| CN(C)C(=O)CCn1nc(N(C)c2ccc(F)c(C(F)(F)F)c2)nc1-c1ccc2c(c1)OCCO2 [Compound 135] | 113.1 to 115.1 | 3.16 |  |  |  |

| Compound | melting point [°C] | EC50 (hα7-wt nAChR [1]) [µM] | Emax (hα7-wt nAChR [1]) [%] | EC50 (hα7-wt nAChR [2]) [µM] | Emax (hα7-wt nAChR [2]) [%] |
| --- | --- | --- | --- | --- | --- |
| CC(O)Cn1nc(Nc2cccc(OC(F)(F)F)c2)nc1-c1ccc(C2CC2)nc1 (stereo not shown) [Compound 150] | 125.5 | 3.98 |  |  |  |
| FCCn1nc(Nc2cccc(OC(F)(F)F)c2)nc1-c1ccnc(C2CC2)c1 [Compound 152] |  | 3.98 |  |  |  |
| C[C@H](O)Cn1nc(Nc2ccc(F)c(F)c2)nc1-c1ccnc(C2CC2)c1 [Compound 175] | 131.4 | 2.51 | 904 |  |  |
| FCCn1nc(Nc2cc(F)cc(F)c2)nc1-c1ccnc(C2CC2)c1 [Compound 177] | 150.3 | 3.98 |  |  |  |
| CNC(=O)Cn1nc(Nc2cc(F)cc(F)c2)nc1-c1ccnc(NC)c1 [Compound 178] | 247 | > 10 |  |  |  |
| COc1ccc(Cl)c(Nc2nc(-c3ccc4c(c3)OCCO4)n(CCC(=O)N(C)C)n2)c1 [Compound 196] | 134.7 to 136.7 | 3.16 |  |  |  |
| CNC(=O)Cn1nc(Nc2ccc3c(c2)OC(F)(F)O3)nc1-c1ccnc(C)c1 [Compound 200] | 227 |  |  | 2 |  |
| CCNC(=O)Cn1nc(Nc2ccc3c(c2)OC(F)(F)O3)nc1-c1ccnc(C)c1F [Compound 201] | 223.5 |  |  | 1 |  |
| CNC(=O)Cn1nc(Nc2ccc3c(c2)OC(F)(F)O3)nc1-c1cc(C)ncc1Cl [Compound 202] | 243 |  |  | 3.16 |  |
| CNC(=O)Cn1nc(Nc2ccc3c(c2)OC(F)(F)O3)nc1-c1cc(Cl)ncc1Cl [Compound 203] | 231.3 |  |  | 3.16 |  |
| CCNC(=O)Cn1nc(Nc2ccc3c(c2)OC(F)(F)O3)nc1-c1ccnc2c1CCC2 [Compound 204] | 260.1 |  |  | 0.631 |  |
| Cc1cc(-c2nc(Nc3ccc4c(c3)OC(F)(F)O4)nn2CC(=O)NC2CCC2)ccn1 [Compound 205] | 224.8 |  |  | 0.794 |  |
| Cc1cc(-c2nc(Nc3ccc4c(c3)OC(F)(F)O4)nn2CC(=O)NC2CCCC2)ccn1 [Compound 206] | 229.1 |  |  | 0.631 |  |
| Cc1cc(-c2nc(Nc3ccc4c(c3)OC(F)(F)O4)nn2CC(=O)NC2CCCC2O)ccn1 (stereo not shown) [Compound 207] | 219.7 |  |  | > 10 | 811 |
| Cc1cc(-c2nc(Nc3ccc4c(c3)OC(F)(F)O4)nn2CC(=O)NC2CCOC2)ccn1 (stereo not shown) [Compound 208] | 253.8 |  |  | 5.01 | 909 |
| Cc1cc(-c2nc(Nc3ccc4c(c3)OC(F)(F)O4)nn2CCC(=O)N(C)C)cc(C)n1 [Compound 209] | 182.2 |  |  | 0.398 |  |
| CN(C)C(=O)CCn1nc(Nc2ccc3c(c2)OC(F)(F)O3)nc1-c1ccncc1F [Compound 210] | 201.5 |  |  | 0.316 |  |
| CNC(=O)Cn1nc(Nc2ccnc(C(F)(F)F)c2)nc1-c1ccc2c(c1)OCCO2 [Compound 212] | 214.2 to 223.5 |  |  | 1.26 |  |
